Measured values from patent publication US20140221424A1, “PHARMACEUTICAL COMPOSITIONS FOR USE IN THE TREATMENT OF CYSTIC FIBROSIS” (Vertex Pharmaceuticals Incorporated, priority 2013, published 2014).
≈ marks a conversion by molar mass, not a printed value. Like-named read-outs stand apart in the source and are kept apart here.

What was measured:
pregnant rats = experiment: Placental transfer in pregnant rats; format: in vivo, rat
Source text: (§1) There are no adequate and well-controlled studies of KALYDECO™ in pregnant women. […] Because animal reproduction studies are not always predictive of human response, KALYDECO™ should be used during pregnancy only if clearly needed.

G551D-CFTR protein [1] = molecular target: T1, G551D-CFTR protein (Homo sapiens, UniProt P13569, G551D); experiment: CFTR-mediated transepithelial current (IT) in rodent cells expressing G551D-CFTR; format: cell-based; design: expressed in transfected cells
G551D-CFTR protein [2] = molecular target: T1, G551D-CFTR protein; experiment: Single channel patch clamp, membrane patches from rodent cells expressing G551D-CFTR; format: biochemical; design: expressed in transfected cells; settings: versus untreated cells, after addition of PICA and ATP
CYP3A = experiment: Drug interaction studies: other drugs on ivacaftor exposure; format: in vivo, human
Procedure: Drug interaction studies were performed with KALYDECO™ and other drugs likely to be co-administered or drugs commonly used as probes for pharmacokinetic interaction studies [see Drug Interactions (subsection 7 of section V)].
(§2) The data obtained for KALYDECO™ without co-administration of inducers or inhibitors are used as reference.

G551D-CFTR protein [3] = molecular target: T1, G551D-CFTR protein; experiment: Transepithelial current (IT) in human bronchial epithelial cells expressing G551D-CFTR; format: cell-based; design: endogenous in cells; host or cells: human bronchial epithelial cells
male and female rats = experiment: Fertility and reproductive performance in rats; format: in vivo, rat
Procedure: Ivacaftor impaired fertility and reproductive performance indices in male and female rats at 200 mg/kg/day (approximately 5 and 6 times, respectively, the MRHD based on summed AUCs of ivacaftor and its metabolites). […] These impairments of fertility and reproductive performance in male and female rats at 200 mg/kg/day were attributed to severe toxicity.

human red blood cells = experiment: Binding to red blood cells; format: in vitro ADME
Solubility in water = format: physicochemical; settings: practically insoluble
Source text: Ivacaftor is a white to off-white powder that is practically insoluble in water (<0.05 microgram/mL).

pregnant rabbits = experiment: Placental transfer in pregnant rabbits; format: in vivo, rabbit
Source text: as §1

lactating female rats = experiment: Excretion into milk of lactating rats; format: in vivo, rat
Procedure: Excretion of ivacaftor into human milk is probable. There are no human studies that have investigated the effects of ivacaftor on breast-fed infants. Caution should be exercised when KALYDECO™ is administered to a nursing person.

[4] = system: Chinese hamster ovary cells; experiment: In vitro chromosomal aberration assay; format: cell-based; settings: CHO cells
Source text: (§3) Ivacaftor was negative for genotoxicity in the following assays: Ames test for bacterial gene mutation, in vitro chromosomal aberration assay in Chinese hamster ovary cells, and in vivo mouse micronucleus test.

rats [5] = experiment: Two-year carcinogenicity study in rats; format: in vivo, rat; settings: oral doses up to 50 mg/kg/day
Procedure: (§4) Two-year studies were conducted in mice and rats to assess carcinogenic potential of KALYDECO™.

[6] = Elimination / human PK study with radioactivity; format: in vivo; settings: for share of the total dose eliminated as this metabolite: po
Source text: (§5) Following oral administration, the majority of ivacaftor (87.8%) is eliminated in the feces after metabolic conversion. The major metabolites M1 and M6 accounted for approximately 65% of the total dose eliminated with 22% as M1 and 43% as M6. There was negligible urinary excretion of ivacaftor as unchanged parent. […] The mean apparent clearance (CL/F) of ivacaftor was similar for healthy subjects and patients with CF.
KALYDECO™ has not been studied in patients with mild, moderate or severe renal impairment (creatinine clearance less than or equal to 30 mL/min) or in patients with end stage renal disease. No dose adjustments are recommended for mild and moderate renal impairment patients because of minimal elimination of ivacaftor and its metabolites in urine (only 6.6% of total radioactivity was recovered in the urine in a human PK study); however, caution is recommended when administering KALYDECO™ to patients with severe renal impairment or end stage renal disease.

[7] = system: CYP3A enzymes (i.e., CYP3A4 and CYP3A5); experiment: Metabolism by CYP3A (in vitro and clinical studies); format: in vitro ADME, human; settings: for substrate of CYP3A enzymes (CYP3A4 and CYP3A5): in vitro studies
Source text: (§6) Ivacaftor is extensively metabolized in humans. […] M1 and M6 are the two major metabolites of ivacaftor in humans. M1 has approximately one-sixth the potency of ivacaftor and is considered pharmacologically active. M6 has less than one-fiftieth the potency of ivacaftor and is not considered pharmacologically active.
as §2

[8] = Pharmacokinetics in moderate hepatic impairment; format: in vivo, human
Procedure: Therefore, a reduced KALYDECO™ dose of 150 mg once daily is recommended for patients with moderate hepatic impairment. The impact of mild hepatic impairment (Child-Pugh Class A) on pharmacokinetics of ivacaftor has not been studied, but the increase in ivacaftor AUC0-∞ is expected to be less than two-fold. Therefore, no dose adjustment is necessary for patients with mild hepatic impairment. The impact of severe hepatic impairment (Child-Pugh Class C, score 10-15) on pharmacokinetics of ivacaftor has not been studied. […] When benefits are expected to outweigh the risks, KALYDECO™ should be used with caution in patients with severe hepatic impairment at a dose of 150 mg given once daily or less frequently.
Therefore, a reduced dose of 150 mg once daily is recommended in patients with moderate hepatic impairment.

rabbits = experiment: Teratogenicity in rabbits; format: in vivo, rabbit; settings: maternal dose 100 mg/kg/day, approximately 12 times the MRHD
Source text: as §1

healthy subjects = experiment: Thorough QT study (ECG evaluation); format: in vivo, human; settings: 150 mg and 450 mg twice daily, 72 healthy subjects
Procedure: The highest repeated dose was 450 mg (in a tablet formulation) every 12 hours for 4.5 days (9 doses) in a trial evaluating the effect of KALYDECO™ on ECGs in healthy subjects.
The effect of multiple doses of ivacaftor 150 mg and 450 mg twice daily on QTc interval was evaluated in a randomized, placebo- and active-controlled (moxifloxacin 400 mg) four-period crossover thorough QT study in 72 healthy subjects.

mouse = experiment: In vivo mouse micronucleus test
Source text: as §3

[9] = Clinical pharmacokinetics after oral administration; format: in vivo, human
Procedure: After every 12 hour dosing, steady-state plasma concentrations of ivacaftor were reached by days 3 to 5, with an accumulation ratio ranging from 2.2 to 2.9.
The exposure of ivacaftor increased approximately 2- to 4-fold when given with food containing fat. Therefore, KALYDECO™ should be administered with fat-containing food. Examples of fat-containing foods include eggs, butter, peanut butter, and cheese pizza. The median (range) tmax is approximately 4.0 (3.0; 6.0) hours in the fed state.
The mean apparent volume of distribution (Vz/F) of ivacaftor after a single dose of 275 mg of KALYDECO™ in the fed state was similar for healthy subjects and patients with CF. After oral administration of 150 mg every 12 hours for 7 days to healthy volunteers in a fed state, the mean (±SD) for apparent volume of distribution was 353 (122) L.
as §5

mice = experiment: Two-year carcinogenicity study in mice; format: in vivo, mouse; settings: oral doses up to 200 mg/kg/day
Procedure: as §4

Plasma protein binding = format: in vitro ADME; settings: human
Source text: Ivacaftor is approximately 99% bound to plasma proteins, primarily to alpha 1-acid glycoprotein and albumin.

juvenile rats = experiment: Juvenile rat toxicology; format: in vivo; settings: juvenile rats dosed postnatal day 7-35, 10 mg/kg/day and higher
Source text: This finding has not been observed in older animals.

[10] = system: patients with a G551D mutation; experiment: Population PK/PD analysis (Emax model) of FEV1 versus ivacaftor exposure; design: species or system human; settings: pooled Phase 2a and Phase 3 data
Source text: Therefore, median Cmin at EC90 was chosen as the target PK parameter for efficacy.

bacterial gene mutation = experiment: Ames test for bacterial gene mutation; format: cell-based
Source text: as §3

rats [11] = experiment: Teratogenicity in rats; format: in vivo, rat; settings: maternal dose 200 mg/kg/day, approximately 6 times the MRHD
Source text: as §1

[12] = Potency of metabolites relative to ivacaftor
Source text: as §6

[13] = rats, 200 mg/kg/day, dams dosed prior to and during early pregnancy
[14] = moderately impaired hepatic function (Child-Pugh Class B, score 7 to 9)

T1 sequence (P13569 whole entry G551D): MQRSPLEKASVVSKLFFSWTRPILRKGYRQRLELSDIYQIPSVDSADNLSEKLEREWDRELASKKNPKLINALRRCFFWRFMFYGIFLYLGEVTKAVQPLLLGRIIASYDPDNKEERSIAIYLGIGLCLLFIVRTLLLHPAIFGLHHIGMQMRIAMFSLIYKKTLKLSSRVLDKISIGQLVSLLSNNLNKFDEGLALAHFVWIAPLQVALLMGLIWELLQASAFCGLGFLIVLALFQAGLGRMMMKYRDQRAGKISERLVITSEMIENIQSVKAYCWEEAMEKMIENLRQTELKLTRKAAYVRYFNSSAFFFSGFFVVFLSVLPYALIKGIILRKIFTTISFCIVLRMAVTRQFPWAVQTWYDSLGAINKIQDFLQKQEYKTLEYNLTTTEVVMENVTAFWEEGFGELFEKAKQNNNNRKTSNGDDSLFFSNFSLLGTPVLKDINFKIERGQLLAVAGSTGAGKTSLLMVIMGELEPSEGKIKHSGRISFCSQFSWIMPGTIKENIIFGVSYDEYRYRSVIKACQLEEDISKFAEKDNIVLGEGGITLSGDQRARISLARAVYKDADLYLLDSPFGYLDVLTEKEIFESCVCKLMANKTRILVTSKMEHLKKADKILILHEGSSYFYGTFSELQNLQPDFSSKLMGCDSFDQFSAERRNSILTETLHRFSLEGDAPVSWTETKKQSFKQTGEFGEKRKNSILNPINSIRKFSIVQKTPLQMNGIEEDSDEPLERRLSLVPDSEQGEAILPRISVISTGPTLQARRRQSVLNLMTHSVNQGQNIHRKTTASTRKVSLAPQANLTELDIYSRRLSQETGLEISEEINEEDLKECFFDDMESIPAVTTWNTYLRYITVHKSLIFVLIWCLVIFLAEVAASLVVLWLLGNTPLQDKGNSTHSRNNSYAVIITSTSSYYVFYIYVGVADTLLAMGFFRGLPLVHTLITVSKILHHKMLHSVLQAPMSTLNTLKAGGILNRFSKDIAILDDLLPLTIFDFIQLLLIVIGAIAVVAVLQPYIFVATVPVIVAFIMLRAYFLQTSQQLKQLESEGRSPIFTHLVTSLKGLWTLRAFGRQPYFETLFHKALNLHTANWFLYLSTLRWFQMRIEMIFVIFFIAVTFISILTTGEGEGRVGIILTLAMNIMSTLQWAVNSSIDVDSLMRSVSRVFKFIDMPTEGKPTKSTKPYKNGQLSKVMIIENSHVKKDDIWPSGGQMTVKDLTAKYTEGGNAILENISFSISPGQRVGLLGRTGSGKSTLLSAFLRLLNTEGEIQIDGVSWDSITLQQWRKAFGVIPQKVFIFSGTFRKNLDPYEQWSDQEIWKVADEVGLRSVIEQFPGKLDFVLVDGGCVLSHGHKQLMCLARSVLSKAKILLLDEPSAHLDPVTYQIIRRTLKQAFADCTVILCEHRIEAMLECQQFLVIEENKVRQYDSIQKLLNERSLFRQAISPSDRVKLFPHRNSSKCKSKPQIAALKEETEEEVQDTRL

CC(C)(C)c1cc(C(C)(C)C)c(NC(=O)c2c[nH]c3ccccc3c2=O)cc1O [Ivacaftor, N-[2,4-bis(1,1-dimethylethyl)-5-hydroxyphenyl]-1,4-dihydro-4-oxoquinoline-3-carboxamide]
placental transfer (pregnant rats): observed | increase of IT in the absence of cAMP agonist (G551D-CFTR protein [1]): did not increase | EC50 (G551D-CFTR protein [1]; following addition of a cAMP agonist, read-out: EC50, increase of CFTR-mediated transepithelial current (IT)): 100 ± 47 nM | increase of open probability of G551D-CFTR protein (G551D-CFTR protein [2]): 6 fold | increase of ivacaftor exposure (CYP3A; co-administration with fluconazole, a moderate inhibitor of CYP3A): 3 fold | increase of ivacaftor exposure (AUC) (CYP3A; co-administration with ketoconazole, a strong CYP3A inhibitor): 8.5 fold | decrease of ivacaftor exposure (AUC) (CYP3A; co-administration with rifampin, a strong CYP3A inducer): approximately 9 fold | EC50 (G551D-CFTR protein [3]): 236 ± 200 nM | increase of IT (G551D-CFTR protein [3]; human bronchial epithelial cells expressing G551D-CFTR, following addition of a cAMP agonist): 10 fold | prolonged diestrus (male and female rats; female rats, 200 mg/kg/day): Increases | fertility and reproductive performance indices (male and female rats; male and female rats, 200 mg/kg/day, attributed to severe toxicity): impaired | fertility and reproductive performance indices (male and female rats; male or female rats, ≦100 mg/kg/day (approximately 3 times the MRHD)): No effects | corpora lutea, implantations, and viable embryos (male and female rats; [13]): decreased | number of females with all nonviable embryos (male and female rats; [13]): increased | binding to human red blood cells (human red blood cells): does not bind | solubility (Solubility in water): < 0.05 µg/mL | placental transfer (pregnant rabbits): observed | excretion into milk (lactating female rats): excreted into the milk | genotoxicity [4]: negative | tumorigenicity (rats [5]): No evidence of tumorigenicity | urinary excretion as unchanged parent ([6]; in vivo): negligible | total radioactivity recovered in the urine ([6]; ivacaftor and its metabolites, human PK study): 6.6% | primary route of metabolism ([7]; in vitro and clinical studies): primarily metabolized by CYP3A | substrate of CYP3A enzymes (CYP3A4 and CYP3A5) [7]: substrates | AUC(0-inf) ([8]; human, in vivo, oral, single dose of 150 mg, moderately impaired hepatic function, read-out: AUC0-∞, mean (±SD)): 16800 ng·h/mL | Cmax ([8]; human, in vivo, oral, single dose of 150 mg, moderately impaired hepatic function, read-out: Cmax, mean (±SD)): 735 ng/mL | Cmax compared with healthy subjects matched for demographics [8, 14]: similar | increase in AUC0-∞ compared with healthy subjects matched for demographics [8, 14]: approximately two-fold | teratogenic effects (rabbits): not teratogenic | upper bound of the one-sided 95% confidence interval for the largest placebo adjusted, baseline-corrected QTcF (healthy subjects): below 10 ms | genotoxicity (mouse): negative | apparent volume of distribution, mean (±SD) ([9]; 150 mg orally every 12 hours for 7 days, healthy volunteers, fed state): 353 (122) L | increase of exposure when given with food containing fat ([9]; human, in vivo): 2-4 fold | mean apparent clearance (CL/F), healthy subjects versus patients with CF ([9]; human, in vivo): similar | pharmacokinetics, healthy adult volunteers versus patients with CF ([9]; human, in vivo): similar | Tmax ([9]; human, in vivo, fed state, read-out: median (range) tmax): ~4 h | half-life ([9]; human, in vivo, following a single dose, read-out: apparent terminal half-life (converted)): ~12 h | AUC ([9]; human, in vivo, single 150 mg oral dose, healthy volunteers, fed state, read-out: AUC, mean (±SD)): 10600 ng·h/mL | Cmax ([9]; human, in vivo, single 150 mg oral dose, healthy volunteers, fed state, read-out: Cmax, mean (±SD)): 768 ng/mL | Tmax ([9]; human, in vivo, single 150 mg oral dose, healthy volunteers, fed state, read-out: time of peak plasma concentrations (Tmax)): ~4 h | mean apparent volume of distribution (Vz/F), healthy subjects versus patients with CF ([9]; single dose of 275 mg, fed state): similar | tumorigenicity (mice): No evidence of tumorigenicity | fraction unbound (Plasma protein binding): ~0.01 | cataracts (juvenile rats): Cataracts were seen | EC50, FEV1 versus ivacaftor exposure, Emax model [10]: 0.045 µg/mL (≈ 0.115 µM) | EC90, FEV1 versus ivacaftor exposure, Emax model [10]: 0.405 µg/mL (≈ 1.03 µM) | genotoxicity (bacterial gene mutation): negative | teratogenic effects (rats [11]): not teratogenic

CC(C)(C)c1cc(C(C)(C)CO)c(O)cc1NC(=O)c1c[nH]c2ccccc2c1=O [M1, hydroxymethyl-ivacaftor]
increase of M1 exposure (CYP3A; ivacaftor co-administered with fluconazole): 1.9 fold | increase of M1 exposure (CYP3A; ivacaftor co-administered with ketoconazole): 1.7 fold | potency relative to ivacaftor [12]: approximately one-sixth | share of the total dose eliminated as this metabolite ([6]; in vivo): 22% | substrate of CYP3A enzymes (CYP3A4 and CYP3A5) [7]: substrates

CC(C)(C)c1cc(C(C)(C)C(=O)O)c(O)cc1NC(=O)c1c[nH]c2ccccc2c1=O [M6]
potency relative to ivacaftor [12]: less than one-fiftieth | share of the total dose eliminated as this metabolite ([6]; in vivo): 43%
